Experimental data reported in US6414017B2, “Inhibition of hair growth” (The Gillette Company, priority 1993, dated 2002).

Tested on: hair growth of flank organs
Experiment: hamster flank organ hair mass assay (reduction of hair growth)
Assay type: in vivo, Male intact Golden Syrian hamsters
Conditions: for reducing hair growth (result in words): vehicle and test not given
Experimental: These organs produce hair in response to androgens in the hamster. To evaluate the effectiveness of a particular inhibitor in reducing hair growth, the flank organs of each of a group of hamsters are depilated by applying a thioglycolate based chemical depilatory (Surgex). To one organ of each animal 10 μl. of vehicle alone once a day is applied, while to the other organ of each animal an equal amount of vehicle containing the inhibitor is applied. After thirteen applications (one application per day for five days a week), the flank organs are shaved and the amount of recovered hair (hair mass) from each is weighed. […] Some preferred inhibitors were tested according to the above procedure.

[1] = Table 3: 5% in Vehicle A, pH 7.5
[2] = Table 3: 10% in Vehicle A, pH 7.5
[3] = Table 3: 10% in Vehicle F, pH 5.5
[4] = Table 3: 15% in Vehicle A, pH 7.5
[5] = Table 3: 20% in Vehicle A, pH 8.0
[6] = Table 3: 20% in Vehicle B, pH 7.0
[7] = Table 3: 20% in Vehicle F, pH 5.5

## O=c1c(O)c(-c2ccc(O)c(O)c2)oc2cc(O)cc(O)c12 [Quercetin, 3,3′,4′,5,7-pentahydroxy flavone]
Dose 5%, Vehicle G, pH 6.0, thirteen applications
  Hair Mass Treated: 1.100 ± .10 mg
Dose 5%, Vehicle G, pH 6.0, vs vehicle treated side
  Percent Inhibition: 27 ± 6%
Dose 10%, Vehicle E, pH 5.5, thirteen applications
  Hair Mass Treated: 0.419 ± .07 mg
Dose 10%, Vehicle E, pH 5.5, vs vehicle treated side
  Percent Inhibition: 83 ± 4%
  reducing hair growth (result in words): effective in reducing hair growth

## O=C(O)C=Cc1ccc(O)c(O)c1 [Caffeic acid, 3,4-dihydroxycinnamic acid]
Dose 15%, Vehicle H, pH 4.0, thirteen applications
  Hair Mass Treated: 0.797 ± .13 mg
Dose 15%, Vehicle H, pH 4.0, vs vehicle treated side
  Percent Inhibition: 62 ± 7%
  reducing hair growth (result in words): effective in reducing hair growth

## CCCOC(=O)c1cc(O)c(O)c(O)c1 [Propyl gallate, propyl gallate]
  reducing hair growth (result in words): effective in reducing hair growth

## COc1ccc2cc(CCC(C)=O)ccc2c1 [Nabumetone, 4-[6-methoxy-2-naphthyl]-2-butanone]
Dose 15%, Vehicle E, pH 6.0, thirteen applications
  Hair Mass Treated: 1.267 ± .23 mg
Dose 15%, Vehicle E, pH 6.0, vs vehicle treated side
  Percent Inhibition: 23.23%

## CC(Cc1ccc(O)c(O)c1)C(C)Cc1ccc(O)c(O)c1 (stereo not drawn) [NDGA, nordihydroguaiaretic acid]
Dose 10%, Vehicle B, pH 6.5, thirteen applications
  Hair Mass Treated: 0.450 ± .11 mg
Dose 10%, Vehicle B, pH 6.5, vs vehicle treated side
  Percent Inhibition: 81 ± 4%
  reducing hair growth (result in words): effective in reducing hair growth

## Cc1c(C)c2c(c(C)c1O)CCC(C)(CCCC(C)CCCC(C)CCCC(C)C)O2 (racemic) [dl-α-tocopherol]
  reducing hair growth (result in words): effective in reducing hair growth

## CC(C(=O)O)c1ccc2c(c1)[nH]c1ccc(Cl)cc12 (stereo not drawn) [Carprofen, 6-chloro-α-methylcarbazole-2-acetic acid]
Dose 20%, Vehicle C, pH 6.0, thirteen applications
  Hair Mass Treated: 0.776 ± .11 mg
Dose 20%, Vehicle C, pH 6.0, vs vehicle treated side
  Percent Inhibition: 29.69%

## Cc1cccc(Nc2ccccc2C(=O)O)c1C [Mefenamic acid, 2-[(2,3-dimethylphenyl)amino]benzoic acid]
Dose 10%, Vehicle A, pH 8.8, thirteen applications
  Hair Mass Treated: 0.518 ± .13 mg
Dose 10%, Vehicle A, pH 8.8, vs vehicle treated side
  Percent Inhibition: 67.18%

## CN1C(C(=O)Nc2ccccn2)=C(O)c2sccc2S1(=O)=O [Tenoxican, 4-hydroxy-2-methyl-N-2-pyridinyl-2H-thieno[2,3-e]-1,2-thiazine-3-carboxamide-1,1-dioxide]
Dose 15%, Vehicle B, pH 8.0, thirteen applications
  Hair Mass Treated: 0.326 ± .08 mg
Dose 15%, Vehicle B, pH 8.0, vs vehicle treated side
  Percent Inhibition: 85.38%

## COc1ccc2c(c1)c(CC(=O)O)c(C)n2C(=O)c1ccc(Cl)cc1 [Indomethacin, 1-[p-chlorobenzoyl]-5-methoxy-2-methylindole-3-acetic acid]
[1]
  Hair Mass Treated: 1.248 ± .20 mg
  Percent Inhibition: 43.41 ± 7.75%
[2]
  Hair Mass Treated: 1.084 ± .11 mg
  Percent Inhibition: 53.32 ± 4.17%
[3]
  Hair Mass Treated: 0.679 ± .08 mg
  Percent Inhibition: 49.89 ± 5.54%
[4]
  Hair Mass Treated: 0.768 ± .10 mg
  Percent Inhibition: 68.77 ± 3.02%
[5]
  Hair Mass Treated: 0.307 ± .08 mg
  Percent Inhibition: 83.78 ± 3.66%
[6]
  Hair Mass Treated: 0.261 ± .01 mg
  Percent Inhibition: 83.37 ± 1.46%
[7]
  Hair Mass Treated: 0.324 ± .08 mg
  Percent Inhibition: 78.43 ± 4.39%

## O=c1cc(-c2ccc(O)cc2)oc2cc(O)cc(O)c12 [apigenin, 4′,5,7-trihydroxy flavone]
  reducing hair growth (result in words): effective in reducing hair growth
